Source: US8691855B2, “Compounds, isomer thereof, or pharmaceutically acceptable salts thereof as vanilloid receptor antagonist and pharmaceutical compositions containing the same” (Amorepacific Corporation, priority 2008, dated 2014)

Molecular target: T1, vanilloid receptor (Rattus norvegicus, UniProt O35433)
T1 construct: DRG nerve cells from the primary culture of 2 days were equilibrated; endogenous in cells; host or cells: primary culture of dorsal root ganglion neurons from neonatal SD rats
Experiment: 45Ca influx test (antagonist calcium uptake test) in rat DRG neurons stimulated with capsaicin
Assay type: cell-based
Details: neonatal SD rat DRG neurons, capsaicin 0.5 μM; for IC50: 45Ca
Description: 1) Separation of spinal dorsal root ganglia (DRG) in newborn rats and primary culture thereof
Neonatal (2-3 clay old or younger than 2-3 day old) SD rats were put in ice for 5 minutes to anesthetize and disinfected with 70% ethanol. DRG of all part of spinal cord were dissected (Wood et al., 1988, J. Neurosci. 8, pp 3208-3220) and collected in DME/F12 medium to which 1.2 g/l sodium bicarbonate and 50 mg/l gentamycin were added. The DRG were incubated sequentially at 37° C. for 30 mins in 200 U/ml collagenase and 2.5 mg/ml trypsin, separately. The ganglia were washed twice with DME/F12 medium supplemented with 10% horse serum, triturated through a fire-polished Pasteur pipette, filtered through Nitex 80 membrane to obtain single cell suspension and the suspension was washed once more. This was subjected to centrifugation, then resuspended in cell culture medium at certain level of cell density. As the cell culture medium, DME/F12 medium supplemented with 10% horse serum was diluted with identical medium conditioned by C6 glioma cells 2 clays on a confluent monolayer (1:1), and NGF (Nerve Growth Factor) was added to adjust 200 ng/ml as final concentration. After the cells were grown 2 days in medium where cytosine arabinoside (Ara-C, 100 μM) was added to kill dividing nonneuronal cells, medium was changed to one without Ara-C. The resuspended cells were plated at a density of 1500-2000 neurons/well onto Terasaki plates previously coated with 10 μg/ml poly-D-ornithine.
2) ^45Ca Influx Experiments
DRG nerve cells from the primary culture of 2 days were equilibrated by washing 4 times with HEPES (10 mM, pH 7.4)-buffered Ca^2+, Mg^2+-free HBSS (H-HBSS). The solution in each well was removed from the individual well. Medium containing the test compound plus capsaicin (final concentration 0.5 μM) and ^45Ca (final concentration 10 μCi/ml) in H-HBSS was added to each well and incubated at room temperature for 10 nuns. Terasaki plates were washed five times with H-HBSS and dried at room temperature. To each well, 0.3% SDS (10 μl) was added to elute ^45Ca. After the addition of scintillation cocktail of into each well, the amount of ^45Ca influx into neuron was measured by counting radioactivity. Antagonistic activities of test compounds against vanilloid receptor were calculated as percent of the inhibition of maximal response of capsaicin at a concentration of 0.5 μM.

T1 sequence (O35433 whole entry): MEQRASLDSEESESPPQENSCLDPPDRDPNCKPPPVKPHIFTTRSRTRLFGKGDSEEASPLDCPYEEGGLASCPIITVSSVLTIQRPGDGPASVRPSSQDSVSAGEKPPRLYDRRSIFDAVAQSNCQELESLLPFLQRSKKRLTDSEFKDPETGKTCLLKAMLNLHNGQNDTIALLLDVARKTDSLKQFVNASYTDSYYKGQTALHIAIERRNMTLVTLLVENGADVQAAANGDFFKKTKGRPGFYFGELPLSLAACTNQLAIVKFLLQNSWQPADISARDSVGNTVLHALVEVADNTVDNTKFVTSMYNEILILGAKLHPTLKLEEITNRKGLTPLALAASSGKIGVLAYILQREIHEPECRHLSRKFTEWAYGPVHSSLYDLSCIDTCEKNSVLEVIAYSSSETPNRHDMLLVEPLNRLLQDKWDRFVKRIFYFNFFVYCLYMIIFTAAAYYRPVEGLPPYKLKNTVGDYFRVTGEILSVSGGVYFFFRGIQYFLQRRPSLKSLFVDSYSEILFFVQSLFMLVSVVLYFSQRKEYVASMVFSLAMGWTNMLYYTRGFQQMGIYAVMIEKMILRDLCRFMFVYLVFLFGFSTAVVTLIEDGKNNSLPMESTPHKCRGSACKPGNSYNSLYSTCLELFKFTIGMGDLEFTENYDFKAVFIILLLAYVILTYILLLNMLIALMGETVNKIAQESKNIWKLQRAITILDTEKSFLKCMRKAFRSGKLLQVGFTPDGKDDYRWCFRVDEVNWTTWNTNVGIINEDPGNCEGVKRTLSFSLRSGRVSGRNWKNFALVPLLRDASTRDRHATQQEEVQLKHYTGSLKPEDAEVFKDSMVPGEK

IC50	Structure (SMILES)	also measured
0.042 µM	C[C@@H](NC(=O)c1ccc(-c2ccc(F)c(C(F)(F)F)c2)o1)c1cc(F)c(NS(C)(=O)=O)c(F)c1 [Example 124, 5-(4-Fluoro-3-trifluoromethyl-phenyl)-furan-2-carboxylic acid [1-(3,5-difluoro-4-methanesulfonylamino-phenyl)-ethyl]-amide]	–
–	C[C@@H](NC(=O)c1csc(Cc2cccc(C(F)(F)F)c2)n1)c1cc(F)c(NS(C)(=O)=O)c(F)c1 (stereo in doubt) [Example 20, 2-(3-Trifluoromethyl-benzyl)-thiazole-4-carboxylic acid [1-(3,5-difluoro-4-methanesulfonylamino-phenyl)-ethyl]-amide]	inhibition at 10 µM (DRG neuron, @10 μM, read-out: Antagonist Calcium Uptake Test, percent inhibition of capsaicin response): 67%
0.65 µM	C[C@@H](NC(=O)c1coc(-c2cccc(Cl)c2)n1)c1cc(F)c(NS(C)(=O)=O)c(F)c1 [Example 82, 2-(3-Chloro-phenyl)-oxazole-4-carboxylic acid [1-(3,5-difluoro-4-methanesulfonylamino-phenyl)-ethyl]-amide]	–
0.16 µM	CCc1cc(-c2ccc(C(=O)N[C@H](C)c3cc(F)c(NS(C)(=O)=O)c(F)c3)o2)cc(C(F)(F)F)c1 [Example 116, 5-(3-Ethyl-5-trifluoromethyl-phenyl)-furan-2-carboxylic acid [1-(3,5-difluoro-4-methanesulfonylamino-phenyl)-ethyl]-amide]	–
0.77 µM	C[C@@H](NC(=O)c1coc(Oc2cccc(C(F)(F)F)c2Cl)n1)c1cc(F)c(NS(C)(=O)=O)c(F)c1 [Example 45, 2-(2-Chloro-3-trifluoromethyl-phenoxy)-oxazole-4-carboxylic acid [1-(3,5-difluoro-4-methanesulfonylamino-phenyl)-ethyl]-amide]	–
2 µM	CC(C)c1cccc(Oc2nc(C(=O)N[C@H](C)c3cc(F)c(NS(C)(=O)=O)c(F)c3)cs2)c1 [Example 31, 2-(3-Isopropyl-phenoxy)-thiazole-4-carboxylic acid [1-(3,5-difluoro-4-methanesulfonylamino-phenyl)-ethyl]-amide]	–
1.6 µM	C#Cc1cccc(Oc2nc(C(=O)N[C@H](C)c3cc(F)c(NS(C)(=O)=O)c(F)c3)co2)c1 [Example 27, 2-(3-Ethynyl-phenoxy)-oxazole-4-carboxylic acid [1-(3,5-difluoro-4-methanesulfonylamino-phenyl)-ethyl]-amide]	–
2.7 µM	C[C@@H](NC(=O)c1coc(-c2ccc3ccccc3c2)n1)c1cc(F)c(NS(C)(=O)=O)c(F)c1 [Example 89, 2-Naphthalen-2-yl-oxazole-4-carboxylic acid [1-(3,5-difluoro-4-methanesulfonylamino-phenyl)-ethyl]-amide]	–
2.7 µM	CS(=O)(=O)Nc1c(F)cc(CNC(=O)c2ccc(-c3cccc(C(F)(F)F)c3)s2)cc1F [Example 65, 5-(3-Trifluoromethyl-phenyl)-thiophene-2-carboxylic acid 3,5-difluoro-4-methanesulfonylamino-benzylamide]	–
1.7 µM	CSc1cccc(-c2nc(C(=O)N[C@H](C)c3cc(F)c(NS(C)(=O)=O)c(F)c3)co2)c1 [Example 98, 2-(3-Methylsulfanyl-phenyl)-oxazole-4-carboxylic acid [1-(3,5-difluoro-4-methanesulfonylamino-phenyl)-ethyl]-amide]	–
0.093 µM	C[C@@H](NC(=O)c1coc(Oc2cccc(I)c2)n1)c1cc(F)c(NS(C)(=O)=O)c(F)c1 [Example 58, 2-(3-Iodo-phenoxy)-oxazole-4-carboxylic acid [1-(3,5-difluoro-4-methanesulfonylamino-phenyl)-ethyl]-amide]	–
0.88 µM	C[C@@H](NC(=O)c1coc(-c2cc(Cl)cc(Cl)c2)n1)c1cc(F)c(NS(C)(=O)=O)c(F)c1 [Example 83, 2-(3,5-Dichloro-phenyl)-oxazole-4-carboxylic acid [1-(3,5-difluoro-4-methanesulfonylamino-phenyl)-ethyl]-amide]	–
> 10 µM	CS(=O)(=O)Nc1c(F)cc(CNC(=O)c2csc(Cc3ccc(F)c(F)c3)n2)cc1F [Example 12, N-[1-(3,5-Difluoro-4-methanesulfonylamino)-benzyl]-2-(3,4-difluorobenzyl)-thiazole-4-amide]	–
4.1 µM	CCOc1cccc(-c2ccc(C(=O)NCc3cc(F)c(NS(C)(=O)=O)c(F)c3)s2)c1 [Example 64, 5-(3-Ethoxy-phenyl)-thiophene-2-carboxylic acid 3,5-difluoro-4-methanesulfonylamino-benzylamide]	–
–	C=Cc1cc(CNC(=O)c2ccc(-c3cccc(C(F)(F)F)c3)o2)cc(F)c1NS(C)(=O)=O [Example 105, 5-(3-Trifluoromethyl-phenyl)-furan-2-carboxylic acid 3-fluoro-4-methanesulfonylamino-5-vinyl-benzylamide]	inhibition at 0.3 µM (DRG neuron, @0.3 μM, read-out: Antagonist Calcium Uptake Test, percent inhibition of capsaicin response): 96%
1.7 µM	C[C@@H](NC(=O)c1coc(-c2ccc(F)c(C(F)(F)F)c2)n1)c1cc(F)c(NS(C)(=O)=O)c(F)c1 [Example 92, 2-(4-Fluoro-3-trifluoromethyl-phenyl)-oxazole-4-carboxylic acid [1-(3,5-difluoro-4-methanesulfonylamino-phenyl)-ethyl]-amide]	–
0.44 µM	CC(C)c1cccc(Oc2nc(C(=O)NCc3cc(F)c(NS(C)(=O)=O)c(F)c3)co2)c1 [Example 9, 2-(3-Isopropyl-phenoxy)-oxazole-4-carboxylic acid 3,5-difluoro-4-methanesulfonylamino-benzylamide]	–
1.1 µM	Cc1ccc(C2CCCCC2)c(Oc2nc(C(=O)N[C@H](C)c3cc(F)c(NS(C)(=O)=O)c(F)c3)co2)c1 [Example 50, 2-(2-Cyclohexyl-5-methyl-phenoxy)-oxazole-4-carboxylic acid [1-(3,5-difluoro-4-methanesulfonylamino-phenyl)-ethyl]-amide]	–
2 µM	Cc1cc(C)cc(-c2nc(C(=O)N[C@H](C)c3cc(F)c(NS(C)(=O)=O)c(F)c3)co2)c1 [Example 99, 2-(3,5-Dimethyl-phenyl)-oxazole-4-carboxylic acid [1-(3,5-difluoro-4-methanesulfonylamino-phenyl)-ethyl]-amide]	–
1.8 µM	CC(C)c1ccc(I)c(Oc2nc(C(=O)N[C@H](C)c3cc(F)c(NS(C)(=O)=O)c(F)c3)co2)c1 [Example 52, 2-(2-Iodo-5-isopropyl-phenoxy)-oxazole-4-carboxylic acid [1-(3,5-difluoro-4-methanesulfonylamino-phenyl)-ethyl]-amide]	–
1.4 µM	C[C@@H](NC(=O)c1coc(NCC2CCCCC2)n1)c1cc(F)c(NS(C)(=O)=O)c(F)c1 [Example 13, 2-(Cyclohexylmethyl-amino)-oxazole-4-carboxylic acid [1-(3,5-difluoro-4-methanesulfonylamino-phenyl)-ethyl]-amide]	–
> 10 µM	C[C@@H](NC(=O)c1coc(Oc2cccc3cccnc23)n1)c1cc(F)c(NS(C)(=O)=O)c(F)c1 [Example 24, 2-(Quinolin-8-yloxy)-oxazole-4-carboxylic acid [1-(3,5-difluoro-4-methanesulfonylamino-phenyl)-ethyl]-amide]	–
> 10 µM	C[C@@H](NC(=O)c1csc(Cc2ccc(F)c(F)c2)n1)c1cc(F)c(NS(C)(=O)=O)c(F)c1 [Example 11, (R)—N-[1-(3,5-Difluoro-4-methanesulfonylamino-phenyl)-ethyl]-2-(3,4-difluorobenzyl)-thiazole-4-amide]	–
0.72 µM	C[C@@H](NC(=O)c1coc(-c2cccc3ccccc23)n1)c1cc(F)c(NS(C)(=O)=O)c(F)c1 [Example 88, 2-Naphthalen-1-yl-oxazole-4-carboxylic acid [1-(3,5-difluoro-4-methanesulfonylamino-phenyl)-ethyl]-amide]	–
1.2 µM	C[C@@H](NC(=O)c1coc(-c2cccc(Cl)c2Cl)n1)c1cc(F)c(NS(C)(=O)=O)c(F)c1 [Example 85, 2-(2,3-Dichloro-phenyl)-oxazole-4-carboxylic acid [1-(3,5-difluoro-4-methanesulfonylamino-phenyl)-ethyl]-amide]	–
3.6 µM	CC(C)c1ccc(Oc2nc(C(=O)N[C@H](C)c3cc(F)c(NS(C)(=O)=O)c(F)c3)co2)cc1 [Example 5, 2-(4-Isopropyl-phenoxy)-oxazole-4-carboxylic acid [1-(3,5-difluoro-4-methanesulfonylamino-phenyl)-ethyl]-amide]	–
6.4 µM	C[C@@H](NC(=O)c1csc(Cc2ccc(C(C)(C)C)cc2)n1)c1cc(F)c(NS(C)(=O)=O)c(F)c1 [Example 10, (R)—N-[1-(3,5-Difluoro-4-methanesulfonylamino-phenyl)-ethyl]-2-(4-t-butylbenzyl)-thiazole-4-amide]	–
